Structures can show the parent of a compound that is named as a salt.
Assays:
[1] = target: T1, human vasopressin V1b receptor (Homo sapiens, UniProt P47901); assay: biochemical
T1 sequence (P47901 1-424): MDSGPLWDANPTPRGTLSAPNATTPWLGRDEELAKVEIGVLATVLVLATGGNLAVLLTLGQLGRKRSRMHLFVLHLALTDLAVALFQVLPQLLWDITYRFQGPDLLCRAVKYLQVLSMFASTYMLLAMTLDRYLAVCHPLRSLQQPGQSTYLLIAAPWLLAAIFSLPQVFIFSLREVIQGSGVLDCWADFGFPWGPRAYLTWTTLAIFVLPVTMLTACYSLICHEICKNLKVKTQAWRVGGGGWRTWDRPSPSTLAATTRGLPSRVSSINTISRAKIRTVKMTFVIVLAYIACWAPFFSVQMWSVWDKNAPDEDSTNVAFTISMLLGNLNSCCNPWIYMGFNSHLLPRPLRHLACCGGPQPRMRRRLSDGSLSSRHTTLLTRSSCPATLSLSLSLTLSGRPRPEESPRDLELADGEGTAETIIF

[2] = target: human vasopressin V1a receptor (Homo sapiens, UniProt P37288); assay: Vasopressin V1a receptor binding assay (125I-AVP displacement, CHO-K1 membranes); conditions: selectivity quotient, human V1a vs human V1b receptor binding
human vasopressin V1a receptor, sequence (P37288 whole entry): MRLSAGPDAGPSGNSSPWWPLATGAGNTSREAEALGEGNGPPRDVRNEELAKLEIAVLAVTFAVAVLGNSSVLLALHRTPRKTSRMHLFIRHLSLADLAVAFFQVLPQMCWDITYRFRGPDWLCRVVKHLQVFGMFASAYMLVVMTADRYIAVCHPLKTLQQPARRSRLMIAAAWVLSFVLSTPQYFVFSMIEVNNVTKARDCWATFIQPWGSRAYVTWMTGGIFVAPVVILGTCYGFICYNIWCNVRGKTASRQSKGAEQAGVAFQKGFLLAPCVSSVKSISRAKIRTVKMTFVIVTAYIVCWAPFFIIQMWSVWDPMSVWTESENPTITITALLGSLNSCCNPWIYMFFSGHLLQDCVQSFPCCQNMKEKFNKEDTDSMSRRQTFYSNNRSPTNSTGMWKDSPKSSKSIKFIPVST

CCOc1ncccc1[C@]1(NC(=O)N2CC(N3CCC(N4CCOCC4)CC3)C2)C(=O)N(S(=O)(=O)c2ccc(OC)cc2OC)c2ccc(C#N)cc21 [Example 1, (S)—N-(5-cyano-1-((2,4-dimethoxyphenyl)sulfonyl)-3-(2-ethoxypyridin-3-yl)-2-oxoindolin-3-yl)-3-(4-morpholinopiperidin-1-yl)azetidine-1-carboxamide]
Ki [1]: < 1 nM
Ki(h-V1a)/Ki(h-V1b) [2]: +++ (>75)

CCOc1ncccc1[C@]1(NC(=O)N2CC(N3CCC(N4CC5(COC5)C4)CC3)C2)C(=O)N(S(=O)(=O)c2ccc(OC)cc2OC)c2ccc(C#N)cc21 [Example 19, (S)-3-(4-(2-Oxa-6-azaspiro[3.3]heptan-6-yl)piperidin-1-yl)-N-(5-cyano-1-((2,4-dimethoxyphenyl)sulfonyl)-3-(2-ethoxypyridin-3-yl)-2-oxoindolin-3-yl)azetidine-1-carboxamide]
Ki [1]: < 1 nM
Ki(h-V1a)/Ki(h-V1b) [2]: +++ (>75)

CCOc1ncccc1[C@]1(NC(=O)N2CC(N3CCC(N4CCOCC4)CC3)C2)C(=O)N(S(=O)(=O)c2ccc(OC)cc2F)c2ccc(C#N)cc21 [Example 27, (S)—N-(5-cyano-3-(2-ethoxypyridin-3-yl)-1-((2-fluoro-4-methoxyphenyl)sulfonyl)-2-oxoindolin-3-yl)-3-(4-morpholinopiperidin-1-yl)azetidine-1-carboxamide]
Ki [1]: < 1 nM
Ki(h-V1a)/Ki(h-V1b) [2]: +++ (>75)

COc1ccc(S(=O)(=O)N2C(=O)[C@@](NC(=O)N3CC(N4CCC(N(C)C5COC5)CC4)C3)(c3cccnc3OC)c3cc(C#N)ccc32)c(OC)c1 [Example 4, (S)—N-(5-Cyano-1-((2,4-dimethoxyphenyl)sulfonyl)-3-(2-methoxypyridin-3-yl)-2-oxoindolin-3-yl)-3-(4-(methyl(oxetan-3-yl)amino)piperidin-1-yl)azetidine-1-carboxamide]
Ki [1]: 1 to 10 nM
Ki(h-V1a)/Ki(h-V1b) [2]: +++ (>75)

CCOc1ncccc1[C@]1(NC(=O)N2CC(N3CCC(N4CCC(O)CC4)CC3)C2)C(=O)N(S(=O)(=O)c2ccc(OC)cc2OC)c2ccc(C#N)cc21 [Example 44, (S)—N-(5-Cyano-1-((2,4-dimethoxyphenyl)sulfonyl)-3-(2-ethoxypyridin-3-yl)-2-oxoindolin-3-yl)-3-(4-hydroxy-[1,4′-bipiperidin]-1′-yl)azetidine-1-carboxamide]
Ki [1]: < 1 nM
Ki(h-V1a)/Ki(h-V1b) [2]: +++ (>75)

COc1ccc(S(=O)(=O)N2C(=O)[C@@](NC(=O)N3CC(N4CCC(N(C)C5COC5)CC4)C3)(c3cccnc3OC)c3cc(C#N)ccc32)c(F)c1 [Example 32, (S)—N-(5-Cyano-1-((2-fluoro-4-methoxyphenyl)sulfonyl)-3-(2-methoxypyridin-3-yl)-2-oxoindolin-3-yl)-3-(4-(methyl(oxetan-3-yl)amino)piperidin-1-yl)azetidine-1-carboxamide]
Ki [1]: 1 to 10 nM
Ki(h-V1a)/Ki(h-V1b) [2]: + (10-<25)

CCOc1ncccc1[C@]1(NC(=O)N2CC(N3CCC(N4CCCO4)CC3)C2)C(=O)N(S(=O)(=O)c2ccc(OC)cc2OC)c2ccc(C#N)cc21 [Example 17, (S)—N-(5-Cyano-1-((2,4-dimethoxyphenyl)sulfonyl)-3-(2-ethoxypyridin-3-yl)-2-oxoindolin-3-yl)-3-(4-(isoxazolidin-2-yl)piperidin-1-yl)azetidine-1-carboxamide]
Ki [1]: 10 to 100 nM
Ki(h-V1a)/Ki(h-V1b) [2]: +++ (>75)

CCOc1ncccc1[C@]1(NC(=O)N2CC(N3CCC(N4CCOCC4)CC3)C2)C(=O)N(S(=O)(=O)c2ccc(F)cc2F)c2ccc(C#N)cc21 [Example 26, (S)—N-(5-Cyano-1-((2,4-difluorophenyl)sulfonyl)-3-(2-ethoxypyridin-3-yl)-2-oxoindolin-3-yl)-3-(4-morpholinopiperidin-1-yl)azetidine-1-carboxamide]
Ki [1]: 1 to 10 nM

CCOc1ncccc1[C@]1(NC(=O)N2CC(N3CCC(N4CCOCC4)CC3)C2)C(=O)N(S(=O)(=O)c2ccc(OC)cc2OC)c2cc(F)c(F)cc21 [Example 8, (S)—N-(1-((2,4-Dimethoxyphenyl)sulfonyl)-3-(2-ethoxypyridin-3-yl)-5,6-difluoro-2-oxoindolin-3-yl)-3-(4-morpholinopiperidin-1-yl)azetidine-1-carboxamide]
Ki [1]: < 1 nM
Ki(h-V1a)/Ki(h-V1b) [2]: ++ (25-75)

COc1ccc(S(=O)(=O)N2C(=O)[C@@](NC(=O)N3CC(N4CCC(N(C)C5COC5)CC4)C3)(c3cccnc3OC)c3cc(C#N)ccc32)cc1 [Example 35, (S)—N-(5-cyano-1-((4-methoxyphenyl)sulfonyl)-3-(2-methoxypyridin-3-yl)-2-oxoindolin-3-yl)-3-(4-(methyl(oxetan-3-yl)amino)piperidin-1-yl)azetidine-1-carboxamide]
Ki [1]: 1 to 10 nM
Ki(h-V1a)/Ki(h-V1b) [2]: ++ (25-75)

COc1ncccc1[C@]1(NC(=O)N2CC(N3CCC(N(C)C4COC4)CC3)C2)C(=O)N(S(=O)(=O)c2ccc(F)cc2F)c2ccc(C#N)cc21 [Example 33, (S)—N-(5-Cyano-1-((2,4-difluorophenyl)sulfonyl)-3-(2-methoxypyridin-3-yl)-2-oxoindolin-3-yl)-3-(4-(methyl(oxetan-3-yl)amino)piperidin-1-yl)azetidine-1-carboxamide]
Ki [1]: 10 to 100 nM
Ki(h-V1a)/Ki(h-V1b) [2]: + (10-<25)

CCOc1ncccc1[C@]1(NC(=O)N2CC(N3CCC(N(C)C4COC4)CC3)C2)C(=O)N(S(=O)(=O)c2ccc(OC)cc2OC)c2ccc(C#N)cc21 [Example 2, (S)—N-(5-cyano-1-((2,4-dimethoxyphenyl)sulfonyl)-3-(2-ethoxypyridin-3-yl)-2-oxoindolin-3-yl)-3-(4-(methyl(oxetan-3-yl)amino)piperidin-1-yl)azetidine-1-carboxamide]
Ki [1]: < 1 nM
Ki(h-V1a)/Ki(h-V1b) [2]: +++ (>75)

CCOc1ncccc1[C@]1(NC(=O)N2CC(N3CCC(N4CCOCC4)CC3)C2)C(=O)N(S(=O)(=O)c2ccc(OC)cc2OC)c2ccc(Cl)cc21 [Example 13, (S)—N-(5-Chloro-1-((2,4-dimethoxyphenyl)sulfonyl)-3-(2-ethoxypyridin-3-yl)-2-oxoindolin-3-yl)-3-(4-morpholinopiperidin-1-yl)azetidine-1-carboxamide]
Ki [1]: < 1 nM

COc1ncccc1[C@]1(NC(=O)N2CC(N3CCC(N(C)C4COC4)CC3)C2)C(=O)N(S(=O)(=O)c2ccc(F)cc2)c2ccc(C#N)cc21 [Example 31, (S)—N-(5-Cyano-1-((4-fluorophenyl)sulfonyl)-3-(2-methoxypyridin-3-yl)-2-oxoindolin-3-yl)-3-(4-(methyl(oxetan-3-yl)amino)piperidin-1-yl)azetidine-1-carboxamide]
Ki [1]: 1 to 10 nM
Ki(h-V1a)/Ki(h-V1b) [2]: + (10-<25)

CCOc1ncccc1[C@]1(NC(=O)N2CC(N3CCC(N4CCOCC4)CC3)C2)C(=O)N(S(=O)(=O)c2ccccc2OC)c2ccc(C#N)cc21 [Example 37, (S)—N-(5-Cyano-3-(2-ethoxypyridin-3-yl)-1-((2-methoxyphenyl)sulfonyl)-2-oxoindolin-3-yl)-3-(4-morpholinopiperidin-1-yl)azetidine-1-carboxamide]
Ki [1]: 1 to 10 nM
Ki(h-V1a)/Ki(h-V1b) [2]: +++ (>75)

CCOc1ncccc1[C@]1(NC(=O)N2CC(N3CCC(N4CCOCC4)CC3)C2)C(=O)N(S(=O)(=O)c2ccc(OC)cn2)c2ccc(C#N)cc21 [Example 36, (S)—N-(5-Cyano-3-(2-ethoxypyridin-3-yl)-1-((5-methoxypyridin-2-yl)sulfonyl)-2-oxoindolin-3-yl)-3-(4-morpholinopiperidin-1-yl)azetidine-1-carboxamide×TFA]
Ki [1]: 1 to 10 nM
Ki(h-V1a)/Ki(h-V1b) [2]: + (10-<25)

COc1ccc(S(=O)(=O)N2C(=O)[C@@](NC(=O)N3CC(N4CCC(NC5COC5)CC4)C3)(c3cccnc3OC)c3cc(C#N)ccc32)c(OC)c1 [Example 20, (S)—N-(5-Cyano-1-((2,4-dimethoxyphenyl)sulfonyl)-3-(2-methoxypyridin-3-yl)-2-oxoindolin-3-yl)-3-(4-(oxetan-3-ylamino)piperidin-1-yl)azetidine-1-carboxamide]
Ki [1]: 1 to 10 nM
Ki(h-V1a)/Ki(h-V1b) [2]: + (10-<25)

CCOc1ncccc1[C@]1(NC(=O)N2CC(N3CCC(N4CCOCC4)CC3)C2)C(=O)N(S(=O)(=O)c2cc(F)c(OC)cc2OC)c2ccc(C#N)cc21 [Example 24, (S)—N-(5-Cyano-3-(2-ethoxypyridin-3-yl)-1-((5-fluoro-2,4-dimethoxyphenyl)sulfonyl)-2-oxoindolin-3-yl)-3-(4-morpholinopiperidin-1-yl)azetidine-1-carboxamide]
Ki [1]: 1 to 10 nM
Ki(h-V1a)/Ki(h-V1b) [2]: +++ (>75)

COc1ccc(S(=O)(=O)N2C(=O)[C@@](NC(=O)N3CC(N4CCC(N(C(C)C)C5COC5)CC4)C3)(c3cccnc3OC)c3cc(C#N)ccc32)c(OC)c1 [Example 38, (S)—N-(5-Cyano-1-((2,4-dimethoxyphenyl)sulfonyl)-3-(2-methoxypyridin-3-yl)-2-oxoindolin-3-yl)-3-(4-(isopropyl(oxetan-3-yl)amino)piperidin-1-yl)azetidine-1-carboxamide]
Ki [1]: 10 to 100 nM
Ki(h-V1a)/Ki(h-V1b) [2]: + (10-<25)

CCOc1ncccc1[C@]1(NC(=O)N2CC(N3CCC(N(C)C4COC4)CC3)C2)C(=O)N(S(=O)(=O)c2ccc(OC)cc2OC)c2ccc(Cl)cc21 [Example 14, (S)—N-(5-Chloro-1-((2,4-dimethoxyphenyl)sulfonyl)-3-(2-ethoxypyridin-3-yl)-2-oxoindolin-3-yl)-3-(4-(methyl(oxetan-3-yl)amino)piperidin-1-yl)azetidine-1-carboxamide]
Ki [1]: < 1 nM
